# Data reported in publication PMC8936486 (PLoS Biology, 2022).
# How the values were obtained:
# SaFtsZf [1] = target: T1, SaFtsZf (Staphylococcus aureus, UniProt P0A029); assay: light scattering of polymer assembly; assay type: biochemical; details: 10 mM MgCl2, pH 6.5, 25 °C
# T1 construct: gene ftsZ
# T1 sequence (P0A029 1-390): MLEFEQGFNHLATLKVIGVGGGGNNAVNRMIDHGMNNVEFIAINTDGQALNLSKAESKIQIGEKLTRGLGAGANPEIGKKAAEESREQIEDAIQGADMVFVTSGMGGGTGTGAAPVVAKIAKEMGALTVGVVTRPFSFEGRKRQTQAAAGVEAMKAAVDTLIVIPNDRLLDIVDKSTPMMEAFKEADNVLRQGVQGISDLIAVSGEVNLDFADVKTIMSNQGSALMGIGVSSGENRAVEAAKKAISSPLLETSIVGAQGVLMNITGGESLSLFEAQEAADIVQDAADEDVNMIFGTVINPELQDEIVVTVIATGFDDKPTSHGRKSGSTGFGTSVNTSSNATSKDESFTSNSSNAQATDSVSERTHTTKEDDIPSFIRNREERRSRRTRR
# MjFtsZ = target: T2, MjFtsZ (Methanocaldococcus jannaschii, UniProt Q57816); assay: light scattering of polymer assembly; assay type: biochemical; details: 5 mM BeF3- with GTP, 55 °C; stabilizes polymers, repolymerization after disassembly
# T2 construct: gene ftsZ1; full-length, nucleotide-devoid (apo)
# SaFtsZf [2] = target: T1, SaFtsZf; assay: electron microscopy of polymers; assay type: biochemical; details: MES assembly buffer, 25 °C
# [3] = target: the molecule itself; assay: right angle light scattering; self-assembly of full-length FtsZ with 1 mM GTP and MgCl2 in MES assembly buffer; SaFtsZf 49 uM and EcFtsZ 25 uM at 25 C, apo-MjFtsZ 15 uM at 55 C; SaFtsZf polymers also seen by electron microscopy
molecule,measurement,setting,value
[F][Be-]([F])[F] [BeF3^−],light scattering of polymer assembly,"SaFtsZf [1]; 1-5 mM BeF3- with 1 mM GTP, stabilizes polymers",Assembly of full-length SaFtsZ is stabilized by BeF3^−
same,light scattering of polymer assembly,MjFtsZ,Repolymerization with BeF3^− after disassembly was observed for MjFtsZ
"Nc1nc2c(ncn2[C@@H]2O[C@H](COP(=O)(O)CP(=O)(O)OP(=O)(O)O)[C@@H](O)[C@H]2O)c(=O)[nH]1 [GMPCPP, guanosine-5′-[(α,β)-methyleno]triphosphate]",electron microscopy of polymers,SaFtsZf [2],Polymers formed with GMPCPP
Nc1nc2c(ncn2[C@@H]2O[C@H](COP(=O)(O)OP(=O)(O)OP(=O)(O)O)[C@@H](O)[C@H]2O)c(=O)[nH]1 [GTP],light scattering of polymer assembly,SaFtsZf [1]; 1 mM GTP,The sample with GTP depolymerized upon nucleotide consumption (blue line)
"full-length FtsZ from S. aureus (natural protein, Staphylococcus aureus Mu50/ATCC 700699, UniProt P0A029 1-390, looked up, full-length FtsZ from methicillin-resistant S. aureus Mu50/ATCC 700699; also called SaFtsZf; full-length SaFtsZ) MLEFEQGFNHLATLKVIGVGGGGNNAVNRMIDHGMNNVEFIAINTDGQALNLSKAESKIQIGEKLTRGLGAGANPEIGKKAAEESREQIEDAIQGADMVFVTSGMGGGTGTGAAPVVAKIAKEMGALTVGVVTRPFSFEGRKRQTQAAAGVEAMKAAVDTLIVIPNDRLLDIVDKSTPMMEAFKEADNVLRQGVQGISDLIAVSGEVNLDFADVKTIMSNQGSALMGIGVSSGENRAVEAAKKAISSPLLETSIVGAQGVLMNITGGESLSLFEAQEAADIVQDAADEDVNMIFGTVINPELQDEIVVTVIATGFDDKPTSHGRKSGSTGFGTSVNTSSNATSKDESFTSNSSNAQATDSVSERTHTTKEDDIPSFIRNREERRSRRTRR",binding result,[3],binds
"nucleotide-devoid, full-length FtsZ from M. jannaschii (natural protein, Methanocaldococcus jannaschii, UniProt Q57816 1-364, looked up, full-length FtsZ from Methanocaldococcus jannaschii, nucleotide-devoid; also called apo-MjFtsZ; MjFtsZ; source: prepared as reported [55]) MKFLKNVLEEGSKLEEFNELELSPEDKELLEYLQQTKAKITVVGCGGAGNNTITRLKMEGIEGAKTVAINTDAQQLIRTKADKKILIGKKLTRGLGAGGNPKIGEEAAKESAEEIKAAIQDSDMVFITCGLGGGTGTGSAPVVAEISKKIGALTVAVVTLPFVMEGKVRMKNAMEGLERLKQHTDTLVVIPNEKLFEIVPNMPLKLAFKVADEVLINAVKGLVELITKDGLINVDFADVKAVMNNGGLAMIGIGESDSEKRAKEAVSMALNSPLLDVDIDGATGALIHVMGPEDLTLEEAREVVATVSSRLDPNATIIWGATIDENLENTVRVLLVITGVQSRIEFTDTGLKRKKLELTGIPKI",binding result,[3],binds
"full-length FtsZ from E. coli (natural protein, Escherichia coli, UniProt P0A9A6 1-383, looked up, full-length FtsZ from Escherichia coli, wild-type protein; also called EcFtsZ; Escherichia coli FtsZ; source: purified as described [54]) MFEPMELTNDAVIKVIGVGGGGGNAVEHMVRERIEGVEFFAVNTDAQALRKTAVGQTIQIGSGITKGLGAGANPEVGRNAADEDRDALRAALEGADMVFIAAGMGGGTGTGAAPVVAEVAKDLGILTVAVVTKPFNFEGKKRMAFAEQGITELSKHVDSLITIPNDKLLKVLGRGISLLDAFGAANDVLKGAVQGIAELITRPGLMNVDFADVRTVMSEMGYAMMGSGVASGEDRAEEAAEMAISSPLLEDIDLSGARGVLVNITAGFDLRLDEFETVGNTIRAFASDNATVVIGTSLDPDMNDELRVTVVATGIGMDKRPEITLVTNKQVQQPVMDRYQQHGMAPLTQEQKPVAKVVNDNAPQTAKEPDYLDIPAFLRKQAD",binding result,[3],binds
